Experiments:
[1] = test system: F/L-HERc cells expressing human EGF-R; assay: Inhibition of EGF-dependent proliferation of F/L-HERc cells; type: cell-based, murine cell line; human EGF-R; conditions: EGF 20 ng/ml, 37° C., 48 hours
From the text: (§1) In this case, an interleukin-3 (IL-3)-dependent cell line of murine origin was used and was genetically modified in such a way that it expresses functional human EGF-R. Proliferation of these cells, which are called F/L-HERc, can therefore be stimulated either by murine IL-3 or by EGF (see von Ruden, T. et al. in EMBO J. 7, 2749-2756 (1988) and Pierce, J. H. et al. in Science 239, […] (1988)).
(§2) The starting material for the F/L-HERc cells was the cell line FDC-P1 whose preparation has been described by Dexter, T. M. et al. in J. Exp. Med. 152, 1036-1047 (1980). However, it is also possible as an alternative to use other growth factor-dependent cells (see, for example, Pierce, J. H. et al. in Science 239, 628-631 (1988), Shibuya, H. et al. in Cell 70, 57-67 (1992) and Alexander, W. S. et al. in EMBO J. 10, 3683-3691 (1991)). Recombinant retroviruses as described in von Ruden, T. et al., EMBO J. 7, 2749-2756 (1988) Were used for expression of the human EGF-R cDNA (see Ullrich, A. et al. in Nature 309, 418-425 (1984)), with the difference that the retroviral vector LXSN (see Miller, A. D. et al. in BioTechniques 7, 980-990 (1989)) was employed for expression of the EGF-R cDNA, and the line GP+E86 (see Markowitz, D. et al. in J. Virol. 62, 1120-1124 (1988)) was used as packaging cell.
(§3) F/L-HERc cells were cultivated in RPMI/1640 medium (BioWhittaker), supplemented with 10% fetal calf serum (FCS, Boehringer Mannheim), 2 mM glutamine (BioWhittaker), standard antibiotics and 20 ng/ml human EGF (Promega), at 37° C. and 5% CO2. To investigate the inhibitor activity of the compounds according to the invention, 1.5×10^4 cells were cultivated in the above medium (200 μl) per well in triplicates in 96-well plates, stimulating proliferation of the cells either with EGF (20 ng/ml) or with murine IL-3. The source used for IL-3 was culture supernatants from the cell line X63/0 mIL-3 (see Karasuyama, H. et al. in Eur. J. Immunol. 18, 97-104 (1988)). The compounds according to the invention were dissolved in 100% dimethyl sulphoxide (DMSO) and added in various dilutions to the cultures, with the maximum DMSO concentration being 1%. The cultures were incubated at 37° C. for 48 hours.
(§4) To determine the inhibitory activity of the compounds according to the invention, the relative cell count was measured in O.D. units using the Cell Titre 96™ AQueous Non-Radioactive Cell Proliferation Assay (Promega). The relative cell count was calculated as a percent of the control (F/L-HERc cells without inhibitor), and the concentration of active substance which inhibits the proliferation of the cells by 50% (IC50) was inferred.

F/L-HERc cells = assay: Inhibition of IL-3-dependent proliferation of F/L-HERc cells; type: cell-based; conditions: Mus musculus, murine IL-3, 37° C., 48 hours
From the text: as §1, §2, §3, §4

## COC(=O)NC1CCN(c2ncc3ncnc(Nc4ccc(F)c(Cl)c4)c3n2)CC1 [1(1), 4-[(3-Chloro-4-fluorophenyl)amino]-6-[4-methoxycarbonylamino-1-piperidinyl]pyrimido[5,4-d]pyrimidine]
[1]
  IC50: 34 nM
F/L-HERc cells
  IC50: > 10 µM

## CC(C)(C)OC(=O)N1CCC(Nc2ncc3ncnc(Nc4ccc(F)c(Cl)c4)c3n2)CC1 [1(2), 4-[(3-Chloro-4-fluorophenyl)amino]-6-[1-tert-butyloxycarbonyl-4-piperidinylamino]pyrimido[5,4-d]pyrimidine]
[1]
  IC50: 44 nM
F/L-HERc cells
  IC50: > 10 µM

## Nc1c(Br)cc(Nc2ncnc3cnc(N4CCC(N)CC4)nc23)cc1Br [1(3), 4-[(4-Amino-3,5-dibromophenyl)amino]-6-[4-amino-1-piperidinyl]pyrimido[5,4-d]pyrimidine]
[1]
  IC50: 67 nM
F/L-HERc cells
  IC50: > 1 µM

## O=CNC1CCN(c2ncc3ncnc(Nc4ccc(F)c(Cl)c4)c3n2)CC1 [1(5), 4-[(3-Chloro-4-fluorophenyl)amino]-6-[4-formylamino-1-piperidinyl]pyrimido[5,4-d]pyrimidine]
[1]
  IC50: 21 nM
F/L-HERc cells
  IC50: > 10 µM

## NCCNc1ncc2ncnc(Nc3ccc(F)c(Cl)c3)c2n1 [1(6), 4-[(3-Chloro-4-fluorophenyl)amino]-6-[2-aminoethylamino]-pyrimido[5,4-d]pyrimidine]
[1]
  IC50: 123 nM
F/L-HERc cells
  IC50: > 10 µM

## NCCCNc1ncc2ncnc(Nc3ccc(F)c(Cl)c3)c2n1 [1(9), 4-[(3-Chloro-4-fluorophenyl)amino]-6-[3-aminopropylamino]pyrimido[5,4-d]pyrimidine]
[1]
  IC50: 18 nM
F/L-HERc cells
  IC50: > 10 µM

## NCCCCNc1ncc2ncnc(Nc3ccc(F)c(Cl)c3)c2n1 [1(10), 4-[(3-Chloro-4-fluorophenyl)amino]-6-[4-aminobutylamino]pyrimido[5,4-d]pyrimidine]
[1]
  IC50: 17 nM
F/L-HERc cells
  IC50: > 10 µM

## CC(N)CNc1ncc2ncnc(Nc3ccc(F)c(Cl)c3)c2n1 (stereo not shown) [1(11), 4-[(3-Chloro-4-fluorophenyl)amino]-6-[2-amino-1-propylamino]pyrimido[5,4-d]pyrimidine]
[1]
  IC50: 75 nM
F/L-HERc cells
  IC50: > 10 µM

## CN1CCCN(c2ncc3ncnc(Nc4ccc(F)c(Cl)c4)c3n2)CC1 [1(12), 4-[(3-Chloro-4-fluorophenyl)amino]-6-[4-methyl-1-homopiperazinyl]pyrimido[5,4-d]pyrimidine]
[1]
  IC50: 375 nM
F/L-HERc cells
  IC50: > 10 µM

## Fc1ccc(Nc2ncnc3cnc(N4CCCNCC4)nc23)cc1Cl [1(13), 4-[(3-Chloro-4-fluorophenyl)amino]-6-[1-homopiperazinyl]-pyrimido[5,4-d]pyrimidine]
[1]
  IC50: 150 nM
F/L-HERc cells
  IC50: > 10 µM

## Nc1ccc(CNc2ncc3ncnc(Nc4ccc(F)c(Cl)c4)c3n2)cc1 [1(14), 4-[(3-Chloro-4-fluorophenyl)amino]-6-[4-aminobenzylamino]pyrimido[5,4-d]pyrimidine]
[1]
  IC50: 28 nM
F/L-HERc cells
  IC50: > 10 µM

## COC(=O)[C@H]1CC[C@H](Nc2ncc3ncnc(Nc4cc(Cl)c(N)c(Cl)c4)c3n2)CC1 [1(15), 4-[(4-Amino-3,5-dichlorophenyl)amino]-6-[(trans-4-methoxycarbonylcyclohexyl)amino]pyrimido[5,4-d]pyrimidine]
[1]
  IC50: 15 nM
F/L-HERc cells
  IC50: > 10 µM

## CCN(CCO)c1ncc2ncnc(Nc3ccc(F)c(Cl)c3)c2n1 [1(23), 4-[(3-Chloro-4-fluorophenyl)amino]-6-[N-ethyl-N-(2-hydroxyethyl)amino]pyrimido[5,4-d]pyrimidine]
[1]
  IC50: 63 nM
F/L-HERc cells
  IC50: > 1 µM

## Fc1ccc(Nc2ncnc3cnc(NCC45CCN(CC4)CC5)nc23)cc1Cl [1(24), 4-[(3-Chloro-4-fluorophenyl)amino]-6-[4-quinuclidinylmethylamino]pyrimido[5,4-d]pyrimidine]
[1]
  IC50: 9 nM
F/L-HERc cells
  IC50: > 1 µM

## COC(CNc1ncc2ncnc(Nc3ccc(F)c(Cl)c3)c2n1)OC [1(25), 4-[(3-Chloro-4-fluorophenyl)amino]-6-[2,2-dimethoxyethylamino]pyrimido[5,4-d]pyrimidine]
[1]
  IC50: 28 nM
F/L-HERc cells
  IC50: > 20 µM

## CC(C)(C)OC(=O)N1CCC(CNc2ncc3ncnc(Nc4ccc(F)c(Cl)c4)c3n2)CC1 [1(26), 4-[(3-Chloro-4-fluorophenyl)amino]-6-[(1-tert-butyloxycarbonyl-4-piperidinyl)methylamino]pyrimido[5,4-d]pyrimidine]
[1]
  IC50: 200 nM
F/L-HERc cells
  IC50: > 20 µM

## CC(C)(N)CNc1ncc2ncnc(Nc3ccc(F)c(Cl)c3)c2n1 [1(27), 4-[(3-Chloro-4-fluorophenyl)amino]-6-[2-amino-2-methyl-1-propylamino]pyrimido[5,4-d]pyrimidine]
[1]
  IC50: 40 nM
F/L-HERc cells
  IC50: > 10 µM

## CN1CCC(N(C)c2ncc3ncnc(Nc4ccc(F)c(Cl)c4)c3n2)CC1 [1(28), 4-[(3-Chloro-4-fluorophenyl)amino]-6-[N-methyl-N-(1-methyl-4-piperidinyl)amino]pyrimido[5,4-d]pyrimidine]
[1]
  IC50: 14 nM
F/L-HERc cells
  IC50: 10 µM

## Fc1ccc(Nc2ncnc3cnc(NCC4CCNCC4)nc23)cc1Cl [1(29), 4-[(3-Chloro-4-fluorophenyl)amino]-6-[4-piperidinylmethylamino]pyrimido[5,4-d]pyrimidine]
[1]
  IC50: 13 nM
F/L-HERc cells
  IC50: > 20 µM

## Fc1ccc(Nc2ncnc3cnc(N4CCC(N5CCOCC5)CC4)nc23)cc1Cl [1(30), 4-[(3-Chloro-4-fluorophenyl)amino]-6-[4-(morpholino)-1-Piperidinyl]pyrimido[5,4-d]pyrimidine]
[1]
  IC50: 125 nM
F/L-HERc cells
  IC50: > 20 µM

## Fc1ccc(Nc2ncnc3cnc(N4CCC(N5CCCC5)CC4)nc23)cc1Cl [1(31), 4-[(3-Chloro-4-fluorophenyl)amino]-6-[4-(1-pyrrolidinyl)-1-piperidinyl]pyrimido[5,4-d]pyrimidine]
[1]
  IC50: 103 nM
F/L-HERc cells
  IC50: 10 µM

## COc1cccc(N2CCN(c3ncc4ncnc(Nc5ccc(F)c(Cl)c5)c4n3)CC2)c1 [1(32), 4-[(3-Chloro-4-fluorophenyl)amino]-6-[4-(3-methoxyphenyl)-1-piperazinyl]pyrimido[5,4-d]pyrimidine]
[1]
  IC50: > 1000 nM
F/L-HERc cells
  IC50: > 20 µM

## COc1ccccc1N1CCN(c2ncc3ncnc(Nc4ccc(F)c(Cl)c4)c3n2)CC1 [1(33), 4-[(3-Chloro-4-fluorophenyl)amino]-6-[4-(2-methoxyphenyl)-1-piperazinyl]pyrimido[5,4-d]pyrimidine]
[1]
  IC50: > 1000 nM
F/L-HERc cells
  IC50: > 20 µM

## CC(C)(C)OC(=O)N1CCN(CCNc2ncc3ncnc(Nc4ccc(F)c(Cl)c4)c3n2)CC1 [1(35), 4-[(3-Chloro-4-fluorophenyl)amino]-6-[2-(4-tert-butyloxycarbonyl-1-piperazinyl)ethylamino]pyrimido[5,4-d]pyrimidine]
[1]
  IC50: 240 nM
F/L-HERc cells
  IC50: > 1 µM

## CC1CC(c2ccc(O)cc2)CN1c1ncc2ncnc(Nc3ccc(F)c(Cl)c3)c2n1 (stereo not shown) [1(36), 4-[(3-Chloro-4-fluorophenyl)amino]-6-[4-(4-hydroxyphenyl)-2-methyl-1-pyrrolidinyl]pyrimido[5,4-d]pyrimidine]
[1]
  IC50: 140 nM
F/L-HERc cells
  IC50: > 1 µM

## NCC1CCCC(CNc2ncc3ncnc(Nc4ccc(F)c(Cl)c4)c3n2)C1 (stereo not shown) [1(38), 4-[(3-Chloro-4-fluorophenyl)amino]-6-[3-(aminomethyl)cyclohexylmethylamino]pyrimido[5,4-d]pyrimidine]
[1]
  IC50: 51 nM
F/L-HERc cells
  IC50: > 1 µM

From patent US5821240A, “Pyrimido[5,4]-dipyrimidines, pharmaceuticals containing them, their use and processes for the preparation thereof” (Dr. Karl Thomae GmbH, priority 1996, dated 1998)
